{"source": "paper PMC9270327", "about": "(Communications Biology, 2022)", "key": {"[1]": {"system": "lentiviral pseudoparticles carrying SARS-CoV-2 Delta (B.1.617.2) spike, Caco-2 cells", "format": "cell-based", "details": "for SARS-CoV-2 spike driven entry, Mean (0 nM = 100): Fig. 5d"}, "[2]": {"system": "lentiviral pseudoparticles carrying SARS-CoV-2 Omicron BA.1 (B.1.1.529) spike, Caco-2 cells", "format": "cell-based"}, "[3]": {"system": "SARS-CoV-2 Beta (B.1.351), Caco-2 cells", "format": "cell-based"}, "[4]": {"system": "lentiviral pseudoparticles carrying SARS-CoV-2 Wuhan-Hu-1 spike, Caco-2 cells", "format": "cell-based"}, "[5]": {"biological_target": "T1, recombinant human thrombin (Homo sapiens, UniProt P00734)", "T1 construct": "purchased R&D Systems (Minneapolis, MN, USA)", "experiment": "Enzyme inhibition assay with purified thrombin (Ki, dose-response)", "format": "biochemical", "details": "normalized", "source_text": "(§1) Recombinant human TMPRSS2 was purchased from Creative BioMart (New York, USA) or LSBio (Seattle, USA), factor Xa was obtained from Bio-Techne GmbH (Wiesbaden, Germany). Recombinant human thrombin and matriptase protein were purchased from R&D Systems (Minneapolis, MN, USA)."}, "TMPRSS2 [6]": {"biological_target": "T2, TMPRSS2 (Homo sapiens, UniProt O15393)", "T2 sequence (O15393 whole entry)": "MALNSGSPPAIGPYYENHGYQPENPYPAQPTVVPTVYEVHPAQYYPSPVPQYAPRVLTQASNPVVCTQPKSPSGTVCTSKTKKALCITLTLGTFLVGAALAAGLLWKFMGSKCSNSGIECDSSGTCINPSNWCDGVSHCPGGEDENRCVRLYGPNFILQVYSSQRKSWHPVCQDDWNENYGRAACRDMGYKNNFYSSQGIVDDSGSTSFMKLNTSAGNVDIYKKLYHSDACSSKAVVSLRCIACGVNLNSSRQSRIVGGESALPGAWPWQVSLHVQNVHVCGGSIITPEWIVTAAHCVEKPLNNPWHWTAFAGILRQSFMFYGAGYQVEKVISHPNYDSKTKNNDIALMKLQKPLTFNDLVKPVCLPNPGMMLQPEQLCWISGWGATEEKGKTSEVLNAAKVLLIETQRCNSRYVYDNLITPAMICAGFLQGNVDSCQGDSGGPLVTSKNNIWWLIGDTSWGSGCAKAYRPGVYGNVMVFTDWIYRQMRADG", "format": "biochemical", "design": "purchased Creative BioMart (New York, USA) or LSBio (Seattle, USA)", "details": "normalized, 0 nM = 100", "source_text": "as §1"}, "TMPRSS2 [7]": {"biological_target": "T2, TMPRSS2", "experiment": "Plasma stability: residual TMPRSS2 inhibition after incubation in human plasma", "experimental": "The activity of the compounds against the recombinant human enzymes was determined in enzyme inhibition assays. […] The measurements were performed on a Tecan infinite® M1000 and the fluorescence intensity was measured by exciting the AMC fluorophore at 380 nm wavelength and recording emission at 460 nm wavelength. […] Fluorescence intensities and absorption were measured every 2 min for 2 h or as endpoint after 2 h. […] To determine the IC50 values, the concentration-response data were plotted with the program GraphPad prism version 8.4.2 (San Diego, California) and a nonlinear regression fit with the equation [Inhibitor] vs. normalized response was applied. The inhibitory constant Ki was calculated from the IC50 values using the Cheng–Prusoff equation (Ki = IC50/[S]/KM) for competitive reversible inhibitors[66].\nThe stability of the inhibitors was measured according to a modified procedure from ref. [67]. […] At indicated timepoints, 100 µL samples were taken and mixed with 200 µL of ethanol to precipitate proteins. […] The supernatant was aspirated and analyzed using analytical HPLC. The residual inhibitory constants Ki after incubation was assessed by mixing serial dilutions of the inhibitor with recombinant TMPRSS2 as described above.\nShown are the means ± SD of n=1 experiment performed in triplicates."}}, "note": "Several values for one entry are separate records, joined by “and”; a condition that tells them apart may be missing. Equal entries are not always repeated. Structures can show the parent of a compound that is named as a salt. Where two headings read alike, the source gives them in different places.", "data": [{"compound": "CN(C)C(=O)COC(=O)Cc1ccc(OC(=O)c2ccc(NC(=N)N)cc2)cc1", "note": "[CM, camostat mesylate, reference compound]", "values": [{"measurement": "IC50", "setting": "[1]; Caco-2 cells, luciferase 2 days post transduction, read-out: IC50 pseudotyped lentivirus Delta", "value": 85.5, "unit": "nM"}, {"measurement": "SARS-CoV-2 spike driven entry, Mean (0 nM = 100)", "setting": "[1]; compound 3.2 nM", "value": 83.3031}, {"measurement": "SARS-CoV-2 spike driven entry, Mean (0 nM = 100)", "setting": "[1]; compound 16 nM", "value": 73.1168}, {"measurement": "SARS-CoV-2 spike driven entry, Mean (0 nM = 100)", "setting": "[1]; compound 80 nM", "value": 52.0145}, {"measurement": "SARS-CoV-2 spike driven entry, Mean (0 nM = 100)", "setting": "[1]; compound 400 nM", "value": 29.5018}, {"measurement": "SARS-CoV-2 spike driven entry, Mean (0 nM = 100)", "setting": "[1]; compound 2000 nM", "value": 11.0315}, {"measurement": "SARS-CoV-2 spike driven entry, Mean (0 nM = 100)", "setting": "[1]; compound 10000 nM", "value": 3.058}, {"measurement": "SARS-CoV-2 spike driven entry, Mean (0 nM = 100)", "setting": "[1]; compound 50000 nM", "value": 0.6818}, {"measurement": "SARS-CoV-2 spike driven entry, Mean (0 nM = 100)", "setting": "[2]", "value": "47.6902 and 69.3145 and 95.2747"}, {"measurement": "IC50", "setting": "[2]; Caco-2 cells, luciferase 2 days post transduction, read-out: IC50 pseudotyped lentivirus Omicron BA.1", "value": 77.6, "unit": "nM"}, {"measurement": "SARS-CoV-2 spike driven entry, Mean (0 nM = 100)", "setting": "[2]; Fig. 5e, compound 400 nM, […]", "value": 26.7078}, {"measurement": "SARS-CoV-2 spike driven entry, Mean (0 nM = 100)", "setting": "[2]; Fig. 5e, compound 2000 nM, […]", "value": 11.5722}, {"measurement": "SARS-CoV-2 spike driven entry, Mean (0 nM = 100)", "setting": "[2]; Fig. 5e, compound 10000 nM, […]", "value": 6.102}, {"measurement": "SARS-CoV-2 spike driven entry, Mean (0 nM = 100)", "setting": "[2]; Fig. 5e, compound 50000 nM, […]", "value": 4.574}, {"measurement": "IC50", "setting": "[3]; read-out: IC50 SARS-CoV-2 Beta", "value": 9.31, "unit": "µM"}, {"measurement": "IC50", "setting": "[3]; read-out: IC50 SARS-CoV-2 Beta (text)", "value": 9.3, "unit": "µM"}, {"measurement": "SARS-CoV-2 spike driven entry, Mean (0 nM = 100)", "setting": "[4]", "value": 90.0332}, {"measurement": "IC50", "setting": "[4]; Caco-2 cells, luciferase 2 days post transduction, read-out: IC50 pseudotyped lentivirus Wuhan-Hu-1", "value": "748 nM and ~748 nM"}, {"measurement": "SARS-CoV-2 spike driven entry, Mean (0 nM = 100)", "setting": "[4]; Fig. 5a, compound 160 nM, […]", "value": 75.4652}, {"measurement": "SARS-CoV-2 spike driven entry, Mean (0 nM = 100)", "setting": "[4]; Fig. 5a, compound 800 nM, […]", "value": 52.9188}, {"measurement": "SARS-CoV-2 spike driven entry, Mean (0 nM = 100)", "setting": "[4]; Fig. 5a, compound 4000 nM, […]", "value": 17.6822}, {"measurement": "SARS-CoV-2 spike driven entry, Mean (0 nM = 100)", "setting": "[4]; Fig. 5a, compound 20000 nM, […]", "value": 3.857}, {"measurement": "SARS-CoV-2 spike driven entry, Mean (0 nM = 100)", "setting": "[4]; Fig. 5a, compound 100000 nM, […]", "value": 2.478}, {"measurement": "thrombin activity, Mean (Fig. 2c)", "setting": "[5]; 0.01 nM", "value": 98.2939}, {"measurement": "thrombin activity, Mean (Fig. 2c)", "setting": "[5]; 0.02 nM, 0 nM = 100", "value": 99.8688}, {"measurement": "thrombin activity, Mean (Fig. 2c)", "setting": "[5]; 0.04 nM, 0 nM = 100", "value": 100.525}, {"measurement": "thrombin activity, Mean (Fig. 2c)", "setting": "[5]; 0.2 nM, 0 nM = 100", "value": 103.675}, {"measurement": "thrombin activity, Mean (Fig. 2c)", "setting": "[5]; 2 nM, 0 nM = 100", "value": 103.806}, {"measurement": "thrombin activity, Mean (Fig. 2c)", "setting": "[5]; 20 nM, 0 nM = 100", "value": 105.906}, {"measurement": "thrombin activity, Mean (Fig. 2c)", "setting": "[5]; 10000 nM, 0 nM = 100", "value": 73.8845}, {"measurement": "thrombin activity, Mean (Fig. 2c)", "setting": "[5]; 100000 nM, 0 nM = 100", "value": 23.2283}, {"measurement": "TMPRSS2 activity, Mean (Fig. 2a)", "setting": "TMPRSS2 [6]; 0.05 nM", "value": 101.705}, {"measurement": "TMPRSS2 activity, Mean (Fig. 2a)", "setting": "TMPRSS2 [6]; 0.5 nM", "value": 66.4773}, {"measurement": "TMPRSS2 activity, Mean (Fig. 2a)", "setting": "TMPRSS2 [6]; 5 nM", "value": 16.1932}, {"measurement": "TMPRSS2 activity, Mean (Fig. 2a)", "setting": "TMPRSS2 [6]; 50 nM", "value": 0.2841}, {"measurement": "TMPRSS2 activity, Mean (Fig. 2a)", "setting": "TMPRSS2 [6]; 500 nM", "value": 0.5682}, {"measurement": "TMPRSS2 activity, Mean (Fig. 2a)", "setting": "TMPRSS2 [6]; 5000 nM", "value": -0.142}, {"measurement": "TMPRSS2 activity, Mean (Fig. 2a)", "setting": "TMPRSS2 [6]; 50000 nM", "value": 0.2841}, {"measurement": "TMPRSS2 activity, Mean (Fig. 2a)", "setting": "TMPRSS2 [6]; 500000 nM", "value": -0.4261}, {"measurement": "TMPRSS2 activity, Mean (0 nM = 100)", "setting": "TMPRSS2 [7]; inhibitor 0.0167 nM, 0 min in plasma", "value": 112.439}, {"measurement": "TMPRSS2 activity, Mean (0 nM = 100)", "setting": "TMPRSS2 [7]; inhibitor 0.0167 nM, 30 min in plasma", "value": 99.4869}, {"measurement": "TMPRSS2 activity, Mean (0 nM = 100)", "setting": "TMPRSS2 [7]; inhibitor 0.0167 nM, 60 min in plasma", "value": 94.1158}, {"measurement": "TMPRSS2 activity, Mean (0 nM = 100)", "setting": "TMPRSS2 [7]; inhibitor 0.0167 nM, 120 min in plasma", "value": 100.839}, {"measurement": "TMPRSS2 activity, Mean (0 nM = 100)", "setting": "TMPRSS2 [7]; inhibitor 0.0167 nM, 24 h in plasma", "value": 102.049}, {"measurement": "TMPRSS2 activity, Mean (0 nM = 100)", "setting": "TMPRSS2 [7]; inhibitor 0.0167 nM, 10 d in plasma", "value": 98.7798}, {"measurement": "TMPRSS2 activity, Mean (0 nM = 100)", "setting": "TMPRSS2 [7]; inhibitor 0.0167 nM, positive ctrl", "value": 95.8208}, {"measurement": "TMPRSS2 activity, Mean (0 nM = 100)", "setting": "TMPRSS2 [7]; inhibitor 0.167 nM, 0 min in plasma", "value": 118.068}, {"measurement": "TMPRSS2 activity, Mean (0 nM = 100)", "setting": "TMPRSS2 [7]; inhibitor 0.167 nM, 30 min in plasma", "value": 99.3363}]}]}
